From patent US12473250B2, “Molecular design of new antibiotics and antibiotic adjuvants against MCR strains” (priority 2019, dated 2025)

What was measured:
[1] = system: colistin resistant MCR (+) E. Coli strains; test: Synergy study: colistin MIC in the presence of compound; assay type: cell-based
How it was run: (§1)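 After 24 hours, MIC was read as the lowest concentration without visible growth. Drugs were tested singly and in combination by CLSI broth microdilution, equal-amount colistin:LC compound mixtures serially diluted 2-fold at a fixed synergy concentration.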

[2] = system: colistin resistant MCR (−) E. Cloacae strain 7023456439; test: as above; assay type: cell-based; conditions: strain 7023456439 E. Cloacae, compound at 2 μg
How it was run: as §1

For `CCN(CC)CCCCOc1ccc(/C=C/C(=O)c2ccc(OCCCCN(CC)CC)c(CC=C(C)C)c2O)cc1` [LC100], the “Colistin MIC in the presence of LC100” value ([1]; LC100 greater than 5 μg/ml, as low as) was 0.0975 µg/mL, the “concentration at which the compound shows synergy with colistin” value ([1]; against mcr-1 bacteria) was 2 µg/mL and the synergy with colistin ([1]; against mcr-1 bacteria, in words) was “excellent synergy”. For the same molecule, the “Colistin MIC in the presence of the compound” value (“Colistin MIC … of the compound” below) ([1]; strain 6075066346, MCR(+), compound at 2 μg) was 1.56 µg/mL, the “Colistin MIC … of the compound” value ([1]; strain 6075066346, MCR(+), compound at 3 μg) was 0.78 µg/mL and the “Colistin MIC … of the compound” value ([1]; strain 6075066346, MCR(+), compound at 5 μg (Table 2a: 5 ug/ml)) was 0.195 µg/mL. For the same molecule, the “Colistin MIC … of the compound” value ([1]; strain 6075066346, MCR(+), compound at 10 μg (Table 2a: 10 ug/ml)) was <0.098 µg/mL, the “Colistin MIC … of the compound” value ([1]; strain 6075066346, MCR(+), compound at 10 μg (Table 2a: 10 ug/ml), listed as LC 100) was <0.0975 µg/mL and the “Colistin MIC … of the compound” value ([1]; strain 6083655967, MCR(+), compound at 2 μg) was 1.56 µg/mL. The “Colistin MIC … of the compound” value ([1]; strain 6083655967, MCR(+), compound at 3 μg) was 0.39 µg/mL, the “Colistin MIC … of the compound” value ([1]; strain 6083655967, MCR(+), compound at 5 μg (Table 2a: 5 ug/ml)) was 0.195 µg/mL and the “Colistin MIC … of the compound” value ([1]; strain 6083655967, MCR(+), compound at 10 μg (Table 2a: 10 ug/ml)) was <0.098 µg/mL. For the same molecule, the “Colistin MIC … of the compound” value ([1]; strain 6083655967, MCR(+), compound at 10 μg (Table 2a: 10 ug/ml), listed as LC 100) was <0.0975 µg/mL, the “Colistin MIC … of the compound” value ([1]; strain 6103645107, MCR(+), compound at 2 μg) was 1.56 µg/mL and the “Colistin MIC … of the compound” value ([1]; strain 6103645107, MCR(+), compound at 3 μg) was 0.78 µg/mL. The “Colistin MIC … of the compound” value ([1]; strain 6103645107, MCR(+), compound at 5 μg (Table 2a: 5 ug/ml)) was 0.195 µg/mL, the “Colistin MIC … of the compound” value ([1]; strain 6103645107, MCR(+), compound at 10 μg (Table 2a: 10 ug/ml)) was <0.098 µg/mL and the “Colistin MIC … of the compound” value ([1]; strain 6103645107, MCR(+), compound at 10 μg (Table 2a: 10 ug/ml), listed as LC 100) was <0.0975 µg/mL. The “Colistin MIC … of the compound” value ([1]; strain 6123520276, MCR(+), compound at 2 μg) was 1.56 µg/mL, the “Colistin MIC … of the compound” value ([1]; strain 6123520276, MCR(+), compound at 3 μg) was 0.78 µg/mL and the “Colistin MIC … of the compound” value ([1]; strain 6123520276, MCR(+), compound at 5 μg (Table 2a: 5 ug/ml)) was 0.195 µg/mL. For the same molecule, the “Colistin MIC … of the compound” value ([1]; strain 6123520276, MCR(+), compound at 10 μg (Table 2a: 10 ug/ml)) was <0.098 µg/mL, the “Colistin MIC … of the compound” value ([1]; strain 6123520276, MCR(+), compound at 10 μg (Table 2a: 10 ug/ml), listed as LC 100) was <0.0975 µg/mL and the “Colistin MIC … of the compound” value ([1]; strain 7013177695, MCR(+), compound at 2 μg) was 1.56 µg/mL. For the same molecule, the “Colistin MIC … of the compound” value ([1]; strain 7013177695, MCR(+), compound at 3 μg) was 0.39 µg/mL, the “Colistin MIC … of the compound” value ([1]; strain 7013177695, MCR(+), compound at 5 μg (Table 2a: 5 ug/ml)) was 0.195 µg/mL and the “Colistin MIC … of the compound” value ([1]; strain 7013177695, MCR(+), compound at 10 μg (Table 2a: 10 ug/ml)) was <0.098 µg/mL. For the same molecule, the “Colistin MIC … of the compound” value ([1]; strain 7013177695, MCR(+), compound at 10 μg (Table 2a: 10 ug/ml), listed as LC 100) was <0.0975 µg/mL, the “Colistin MIC … of the compound” value ([1]; strain 7023436560, MCR(+), compound at 2 μg) was 1.56 µg/mL and the “Colistin MIC … of the compound” value ([1]; strain 7023436560, MCR(+), compound at 3 μg) was 0.39 µg/mL. For the same molecule, the “Colistin MIC … of the compound” value ([1]; strain 7023436560, MCR(+), compound at 5 μg (Table 2a: 5 ug/ml)) was 0.195 µg/mL, the “Colistin MIC … of the compound” value ([1]; strain 7023436560, MCR(+), compound at 10 μg (Table 2a: 10 ug/ml)) was <0.098 µg/mL and the “Colistin MIC … of the compound” value ([1]; strain 7023436560, MCR(+), compound at 10 μg (Table 2a: 10 ug/ml), listed as LC 100) was <0.0975 µg/mL. For the same molecule, the “Colistin MIC … of the compound” value ([1]; strain 7023444207, MCR(+), compound at 2 μg) was 1.56 µg/mL, the “Colistin MIC … of the compound” value ([1]; strain 7023444207, MCR(+), compound at 3 μg) was 0.39 µg/mL and the “Colistin MIC … of the compound” value ([1]; strain 7023444207, MCR(+), compound at 5 μg (Table 2a: 5 ug/ml)) was 0.195 µg/mL. The “Colistin MIC … of the compound” value ([1]; strain 7023444207, MCR(+), compound at 10 μg (Table 2a: 10 ug/ml)) was <0.098 µg/mL, the “Colistin MIC … of the compound” value ([1]; strain 7023444207, MCR(+), compound at 10 μg (Table 2a: 10 ug/ml), listed as LC 100) was <0.0975 µg/mL and the “Colistin MIC … of the compound” value [2] was <0.0975 µg/mL.
